Reference: patent publication US8658647B2, “Integrin-linked kinase inhibitors” (The Ohio State University Research Foundation, priority 2010, dated 2014)

Legend:
[1] = system: PC-3 human prostate cancer cells; experiment: MTT cell viability assay in PC-3 cells; format: cell-based; conditions: 24 h, 5% FBS; for IC50: Homo sapiens, read-out: IC50, antiproliferative activity
Experimental: (§1) FIG. 2 provides (A) Western blot analysis of the effects of compounds 1-9 on Akt phosphorylation at the PDK1 (T308) and PDK2 (S473) sites in PC-3 human prostate cancer cells after 24 h treatment at 2.5 μM in the presence of 5% fetal bovine serum (FBS), and (B) Dose-dependent effects of compounds 1-9 on the viability of PC-3 cells treated as described above in A. Cell viability was assessed by MTT assay. Points, mean; bars, ±SD.
(§2) FIG. 5 provides the results from the screening of compounds 10-13. (A) Dose-dependent effects of compounds 10-13 and 2 on the viability of PC-3 cells after 24 h treatment […] in the presence of 5% FBS. Cell viability was assessed by MTT assay. Points, mean; bars, ±SD. (B) Western blot analysis of the effects of compounds 2 and 13 on the phosphorylation status of downstream targets of ILK in PC-3 cells.
(§3) In another series of tests, Compounds 10-13 were screened for antiproliferative activity, in parallel with compound 2, by MTT assay in PC-3 human prostate cancer cells. […] The effects of compound 13, vs. compound 2, on the phosphorylation status of downstream targets of ILK in PC-3 cells were evaluated by western blotting.

[2] = system: Akt phosphorylation at the PDK2 site [S473] versus the PDK1 site [T308]; experiment: Western blot of Akt phosphorylation at PDK2 (S473) vs PDK1 (T308) sites in PC-3 cells; format: cell-based, human; conditions: 24 h, 2.5 μM, 5% FBS
Experimental: as §1

[3] = system: downstream targets of ILK; experiment: Western blot of phosphorylation status of downstream targets of ILK in PC-3 cells (FIG. 5B); format: cell-based, human
Experimental: as §2, §3

[4] = system: MCF-7 human breast cancer cells; experiment: MTT cell viability assay in MCF-7 cells; format: cell-based; conditions: MCF7, 24 h, 5% FBS, read-out: IC50, antiproliferative activity
Experimental: (§4) Dose-dependent effects of compounds 4-9 in MCF-7 (upper panel) and SKBR3 (lower) cells after 24 h treatment in the presence of 5% FBS. Cell viability was assessed by MTT assay. Points, mean; bars, ±SD.
(§5) Compounds 4-9, which were screened previously in a prostate cancer cell line (FIG. 2), were evaluated for antiproliferative activity in MCF-7 and SKBR3 human breast cancer cells.

[5] = system: SKBR3 human breast cancer cells; experiment: MTT cell viability assay in SKBR3 cells; format: cell-based; conditions: SK-BR-3, 24 h, 5% FBS, read-out: IC50, antiproliferative activity
Experimental: as §4, §5

[6] = system: PC-3 tumor xenografts; experiment: PC-3 prostate tumor xenograft model, oral dosing; format: in vivo; conditions: 35 days
Experimental: PC-3 tumors were established in male athymic nude mice by subcutaneous injection of 5×10^5 PC-3 cells in a total volume of 0.1 ml serum-free medium containing 50% Matrigel. Mice with established tumors were randomized to three groups receiving the indicated treatments once daily by gavage for 35 days. Tumor sizes and body weights were measured weekly. Points, mean tumor volume; bars, ±SD.
The In vivo tumor suppressive activity of compound 2 in the PC-3 prostate tumor xenograft model was also evaluated. Based on the results described above, compound 2 was identified as the lead agent for development as a novel ILK/PDK2 inhibitor. To evaluate the in vivo antitumor activity of compound 2, athymic nude mice bearing established subcutaneous PC-3 tumor xenografts (mean starting tumor volume, 157.1±29.1 mm^3) were treated orally for 35 days with compound 2 at 25 or 50 mg/kg once daily or with vehicle (0.5% methylcellulose and 0.1% Tween 80 in sterile water) (n=5 mice). […] The in vivo efficacy of compound 2 after oral administration indicates its oral bioavailability.

[7] = system: prostate (PC-3, LNCaP) and breast cancer (MDA-MB-468, MDA-MB-231, CAL51, MCF-7, SKBR3) cell lines vs nonmalignant prostate (PrEC) and mammary epithelial cells …; experiment: MTT cell viability in panel of prostate and breast cancer cell lines vs nonmalignant epithelial cells; format: cell-based, human; conditions: 12, 24 or 48 h
Experimental: Time- and/or dose-dependent effects of compound 2 on cell viability in (A) prostate cancer (PC-3, LNCaP) and nonmalignant prostate epithelial cells (PrEC), and (B) breast cancer (MDA-MB-468, MDA-MB-231, CAL51, MCF-7, SKBR3) and nonmalignant mammary epithelial cells (MEC) were determined. Cells were treated for 12, 24 or 48 h at the indicated concentrations and cell viability determined by MTT assays. Points, mean; bars, ±SD.
As structurally related compounds 2 and 3 differ only in that the N-alkyl moiety, i.e., methyl versus ethyl, compound 2 was selected for more thorough evaluation. Dose- and time-dependent effects of compound 2 on cell viability were determined in a panel of two prostate (PC-3, LNCaP) and five breast cancer (MDA-MB-468, MDA-MB-231, CAL51, MCF-7, SKBR3) cell lines (FIGS. 3A and B). Moreover, cancer cell lines were also evaluated in parallel with nonmalignant prostate and mammary epithelial cells (FIG. 3A, lower panel; 3B lower right panel).

[8] = system: downstream targets of ILK (Akt-S473; GSK3β-S9); experiment: Western blot of downstream targets of ILK, dose-dependent (FIG. 4); format: cell-based, human; conditions: PC-3 and MDA-MB-468 cells, 24 h, 5% FBS
Experimental: FIG. 4 provides evidence that Compound 2 suppresses the ILK signaling pathway. Western blot analysis of the dose-dependent effect of Compound 2 on downstream targets of ILK (Akt-S473; GSK3β-S9) in PC-3 and […] cells. Cells were treated for 24 h at the indicated concentrations in the presence of 5% FBS.
Based on western blot data showing the selective reduction in phospho-Akt-S473 levels relative to those of phospho-Akt-T308 (FIG. 2A), compound 2 was identified as an inhibitor of PDK2 activity. To evaluate compound 2 for the ability to inhibit ILK signaling, its effect on downstream targets of ILK was assessed in PC-3 and MDA-MB-468 cells by Western blotting (FIG. 4).

## CNC(=O)CCc1cc(-c2ccc(-c3ccc(C)cc3)cc2)n(-c2ccc(N3CCNCC3)cc2)n1 [Compound 11, N-methyl-3-(5-(4′-methyl-[1,1′-biphenyl]-4-yl)-1-(4-(piperazin-1-yl)phenyl)-1H-pyrazol-3-yl)propanamide]
[1]
  IC50: 2 to 3 µM

## CCNC(=O)CCc1cc(-c2ccc(-c3ccc(C(F)(F)F)cc3)cc2)n(-c2ccc(N3CCNCC3)cc2)n1 [Compound 3, N-ethyl-3-(1-(4-(piperazin-1-yl)phenyl)-5-(4′-(trifluoromethyl)-[1,1′-biphenyl]-4-yl)-1H-pyrazol-3-yl)propanamide]
[1]
  antiproliferative activity, relative potency among compounds 1-9: most potent among the nine compounds
[2]
  selective inhibition of Akt-S473 phosphorylation (PDK2 inhibitory activity): marked selective inhibition of Akt-S473 phosphorylation

## CNC(=O)CCc1cc(-c2ccc3c(ccc4ccccc43)c2)n(-c2ccc(N3CCNCC3)cc2)n1 [Compound 13, N-methyl-3-(5-(phenanthren-2-yl)-1-(4-(piperazin-1-yl)phenyl)-1H-pyrazol-3-yl)propanamide]
[3]
  phospho-Akt-S473 relative to phospho-Akt-T308: strong reduction
  suppressive activity against GSK3β phosphorylation: did not exhibit substantial suppressive activity
[1]
  IC50: 2 to 3 µM

## CCNC(=O)c1cc(-c2ccc(-c3ccc(C(F)(F)F)cc3)cc2)n(-c2ccc(NC(=O)CCN)cc2)n1 [Compound 5, 1-(4-(3-aminopropanamido)phenyl)-N-ethyl-5-(4′-(trifluoromethyl)-[1,1′-biphenyl]-4-yl)-1H-pyrazole-3-carboxamide]
[4]
  IC50: 4 to 5 µM
[5]
  IC50: 4 to 5 µM

## CNC(=O)CCc1cc(-c2ccc(-c3ccc(C(F)(F)F)cc3)cc2)n(-c2ccc(N3CCNCC3)cc2)n1 [Compound 2, N-methyl-3-(1-(4-(piperazin-1-yl)phenyl)-5-(4′-(trifluoromethyl)-[1,1′-biphenyl]-4-yl)-1H-pyrazol-3-yl)propanamide]
[6]; 25 mg/kg once daily oral, P=0.10
  inhibition of PC-3 tumor growth relative to vehicle-treated controls: 42%
[6]; 50 mg/kg once daily oral, P=0.03
  inhibition of PC-3 tumor growth relative to vehicle-treated controls: 56%
[6]; 25 or 50 mg/kg once daily oral
  changes in body weight: nor significant changes in body weight
  tolerability, signs of toxicity: no overt signs of toxicity
[7]
  selectivity of cytotoxicity, cancer cells versus nonmalignant cells: selective cytotoxicity for cancer cells versus their nonmalignant counterparts
[8]
  phospho-S473-Akt levels: marked and selective decrease
  phosphorylation of GSK3β: reduced the phosphorylation
[1]
  antiproliferative activity, relative potency among compounds 1-9: most potent among the nine compounds
[2]
  selective inhibition of Akt-S473 phosphorylation (PDK2 inhibitory activity): marked selective inhibition of Akt-S473 phosphorylation
